This is an account of results in article PMC4850295, “Using a Genetically Encoded Sensor to Identify Inhibitors of Toxoplasma gondii Ca^2+ Signaling” (The Journal of Biological Chemistry, 2016).

Experiment [1] concerns the target T1, recombinant T. gondii PKG (cGMP-dependent protein kinase; protein kinase G) (Toxoplasma gondii, UniProt Q8MMZ7). The experiment in a line: in vitro kinase assay (CycLex PKG assay kit). The experiment is classed as biochemical. The conditions noted are these: 6.76 nM recombinant PKG.
Experiment [2] concerns the target T1, recombinant T. gondii PKG (cGMP-dependent protein kinase; protein kinase G). Briefly: in vitro kinase assay (CycLex PKG assay kit). The experiment is classed as biochemical.
The test system of experiment [3] is T2, GCaMP5-expressing T. gondii.
T2 construct: whole extracellular parasites expressing GCaMP5 Ca2+ sensor
Details: species or system GCaMP5-expressing Toxoplasma gondii, extracellular; GCaMP5 fluorescence (cytosolic Ca2+) after 100 uM zaprinast in compound-pretreated extracellular parasites, background-subtracted, relative to zaprinast alone. The conditions noted are these: 100 uM zaprinast stimulation; 10 min pretreatment; mean of two replicates; 0.23 h. The procedure, abridged:
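Read-out is GCaMP5 calcium fluorescence (ex 485/em 525 nm) taken 4 min after 100 μM zaprinast at 37 °C, following 10 min compound pretreatment at 10 μM in duplicate biological replicates. Values are basal-subtracted fold change versus zaprinast-only controls; parasites held extracellular in Ringer's solution.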

T1 sequence (Q8MMZ7 whole entry): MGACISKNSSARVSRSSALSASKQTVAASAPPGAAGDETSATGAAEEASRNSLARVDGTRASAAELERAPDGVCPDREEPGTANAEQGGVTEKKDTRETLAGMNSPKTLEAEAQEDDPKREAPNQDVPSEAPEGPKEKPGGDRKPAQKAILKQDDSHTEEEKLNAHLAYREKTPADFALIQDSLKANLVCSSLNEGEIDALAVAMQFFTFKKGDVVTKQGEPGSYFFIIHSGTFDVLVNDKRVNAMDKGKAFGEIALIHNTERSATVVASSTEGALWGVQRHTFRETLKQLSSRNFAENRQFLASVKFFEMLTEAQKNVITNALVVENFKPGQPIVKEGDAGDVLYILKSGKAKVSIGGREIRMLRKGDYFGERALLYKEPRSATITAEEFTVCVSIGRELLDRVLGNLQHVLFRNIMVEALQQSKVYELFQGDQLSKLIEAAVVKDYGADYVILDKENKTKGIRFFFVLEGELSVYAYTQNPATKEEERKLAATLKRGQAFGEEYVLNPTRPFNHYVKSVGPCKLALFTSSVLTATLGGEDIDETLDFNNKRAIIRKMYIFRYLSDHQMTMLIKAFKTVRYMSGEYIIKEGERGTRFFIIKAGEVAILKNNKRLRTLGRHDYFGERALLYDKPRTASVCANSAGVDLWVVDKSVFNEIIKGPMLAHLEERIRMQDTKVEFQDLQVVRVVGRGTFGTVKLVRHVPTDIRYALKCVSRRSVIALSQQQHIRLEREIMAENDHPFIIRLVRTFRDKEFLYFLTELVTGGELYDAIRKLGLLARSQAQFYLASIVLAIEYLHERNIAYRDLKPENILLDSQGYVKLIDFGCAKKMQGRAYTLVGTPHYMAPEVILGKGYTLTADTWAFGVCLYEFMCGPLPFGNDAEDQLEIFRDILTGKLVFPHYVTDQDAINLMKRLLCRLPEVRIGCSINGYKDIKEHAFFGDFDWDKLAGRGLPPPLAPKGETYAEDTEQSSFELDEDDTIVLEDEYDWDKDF

For the molecule `CN(C)Cc1ccn2c(-c3ccnc(N)n3)c(-c3ccc(F)cc3)nc2c1` [Cpd2, Compound 2], the “activity versus inhibitor concentration” value in experiment [1] is on record as “presence of increasing concentrations of Inh1, Inh2, or the PKG inhibitor Cpd2”.

For `Nc1nc(-c2ccc3c(c2)C(=Cc2cc(Br)c(O)c(Br)c2)C(=O)N3)cs1` [Inh2], the IC50 in experiment [2] turned out to be 670 nM. For the same molecule, the “fold change in fluorescence relative to zaprinast alone” value in experiment [3] is given as 0.1475.

For the molecule `Fc1ccc(-c2nn3ncccc3c2-c2ccnc(Nc3ccc4c(c3)OCCO4)n2)cc1` [Inh1], the IC50 in experiment [2] was found to be 580 nM. Also, the “fold change in fluorescence relative to zaprinast alone” value in experiment [3] was -0.1251.

Turning to `COc1cc(Nc2nccc(-c3cnn4ncccc34)n2)cc(OC)c1` [GW801372X], the “fold change in fluorescence relative to zaprinast alone” value in experiment [3] was determined as 0.4013.

Regarding `COc1ccc2cc(-c3c(-c4ccncc4)nc(-c4ccc(SC)cc4C)n3C)ccc2c1` [SB-625086-M], in experiment [3], the “fold change in fluorescence relative to zaprinast alone” value is 0.941.

For the molecule `Cc1occc1-c1nc(N)c(OC[C@@H](N)Cc2c[nH]c3ccccc23)cc1-c1cc2c(C)[nH]nc2cn1` [GSK1660450B], the “fold change in fluorescence relative to zaprinast alone” value in experiment [3] was 1.179.

With `COC(=O)Nc1nc2ccc(Oc3ccc(NC(=O)Nc4cc(C(F)(F)F)ccc4F)cn3)cc2[nH]1` [GW681170A], the “fold change in fluorescence relative to zaprinast alone” value in experiment [3] is listed as 1.637.

`Cc1ccnc2ccc(-c3sc(N)nc3-c3ccccn3)nc12` [GW777257X]: the “fold change in fluorescence relative to zaprinast alone” value in experiment [3] worked out at 1.011.

For `COc1ccc2ncn(-c3cc(O[C@H](C)c4ccccc4C(F)(F)F)c(C(N)=O)s3)c2c1` [GSK317315A], the “fold change in fluorescence relative to zaprinast alone” value in experiment [3] is on record as 0.7483.

As for `Fc1ccc(-c2ncn(CCCN3CCOCC3)c2-c2ccncc2)cc1` [SB-210313], the “fold change in fluorescence relative to zaprinast alone” value in experiment [3] stood at 1.039.

For `CC(=O)N1CCN(c2ccc(Nc3nccc(-c4sc(C(C)C)nc4-c4cccc(NS(=O)(=O)c5cccc(Cl)c5)c4)n3)cn2)CC1` [GSK1660437A], the “fold change in fluorescence relative to zaprinast alone” value in experiment [3] was 1.275.

With `Cc1[nH]nc2cc(Nc3ccnc(Nc4cccc(CN5CCOCC5)c4)n3)ccc12` [GW682569X], the “fold change in fluorescence relative to zaprinast alone” value in experiment [3] came out at 1.452.

As for `COc1ccc2c(-c3ccnc(Nc4cccc(OC(F)(F)F)c4)n3)cnn2n1` [GW810372X], in experiment [3], the “fold change in fluorescence relative to zaprinast alone” value is 0.1756.

With `COc1cc2c(cc1Nc1nc(N3CCc4ccccc43)c3cc[nH]c3n1)N(C(=O)CN(C)C)CC2` [GSK2186269A], in experiment [3], the “fold change in fluorescence relative to zaprinast alone” value is reported as 1.113.

On to `NCC(NC(=O)c1cc(-c2cccnc2)c(-c2ccnc3[nH]ccc23)s1)c1ccccc1` (centres unmarked) [GSK1323434A], for which, in experiment [3], the “fold change in fluorescence relative to zaprinast alone” value worked out at 0.997.

Consider `Fc1ccc(-c2c(-c3ccccn3)nc3n2CCS3)cc1` [SKF-104365], for which the “fold change in fluorescence relative to zaprinast alone” value in experiment [3] was determined as 0.9062.

For `N#Cc1cccc(Nc2nccc(-c3cnn4ncccc34)n2)c1` [GW778894X], the “fold change in fluorescence relative to zaprinast alone” value in experiment [3] came out at 0.1658.

For `CCn1c(-c2ccccn2)nc2cnccc21` [SB-736398], the “fold change in fluorescence relative to zaprinast alone” value in experiment [3] came to 1.076.

On to `CC(=O)Nc1[nH]nc2ncc(-c3ccccc3)cc12` [SB-548492], for which the “fold change in fluorescence relative to zaprinast alone” value in experiment [3] worked out at 1.137.

In the case of `c1ccc(Nc2ncc(-c3ccccc3)o2)cc1` [GW549390X], the “fold change in fluorescence relative to zaprinast alone” value in experiment [3] is recorded as 1.88.

On to `COc1cccc(-n2cnc3c(N)ncnc32)c1` [SKF-97416], for which the “fold change in fluorescence relative to zaprinast alone” value in experiment [3] worked out at 1.043.

In the case of `CS(=O)(=O)CCNCc1nc(-c2ccc3ncnc(Nc4ccc(F)c(Cl)c4)c3c2)cs1` [GW461104B], the “fold change in fluorescence relative to zaprinast alone” value in experiment [3] came to 0.6524.

`CNC(=O)c1cncc(/C=C/c2c(Cl)cccc2Cl)c1` [GW445014X]: the “fold change in fluorescence relative to zaprinast alone” value in experiment [3] is reported as 1.122.

As to `COc1c(C(N)=O)cc(-c2ccc(Cl)cc2)cc1-c1ccc(S(N)(=O)=O)cc1` [GSK711701A], in experiment [3], the “fold change in fluorescence relative to zaprinast alone” value was found to be 1.357.

Take `FC(F)(F)c1ccc(-c2nn3ncccc3c2-c2ccnc(Nc3cccc(C(F)(F)F)c3)n2)cc1` [GW828205X]: the “fold change in fluorescence relative to zaprinast alone” value in experiment [3] turned out to be 0.4128.

For the molecule `NCc1ccc(-n2c(-c3nonc3N)nc3cnccc32)cc1` [SB-750140], in experiment [3], the “fold change in fluorescence relative to zaprinast alone” value is recorded as 1.416.

Turning to `Nc1n[nH]c2cc(-c3ccccn3)ccc12` [GSK2189892A], the “fold change in fluorescence relative to zaprinast alone” value in experiment [3] is 1.03.

For `COc1cc2nccc(Nc3ccc(OCc4ccc(NC(C)=O)cc4)cc3)c2cc1OC` [GW440135A], the “fold change in fluorescence relative to zaprinast alone” value in experiment [3] turned out to be 1.118.

`CC(C)c1nc(-c2cccc(NS(=O)(=O)c3c(F)cccc3F)c2)c(-c2ccnc(Nc3ccc(N4CCOCC4)nc3)n2)s1` [GSK1723980B]: the “fold change in fluorescence relative to zaprinast alone” value in experiment [3] is 0.6316.

Consider `CCn1c(-c2nonc2N)nc2c(N3CCCC3)nccc21` [SB-744941], for which the “fold change in fluorescence relative to zaprinast alone” value in experiment [3] was 0.961.

`Fc1ccc(-c2ncn(C3CCNCC3)c2-c2ccnc(Oc3ccc(F)c(F)c3)n2)cc1` [SB-253228]: the “fold change in fluorescence relative to zaprinast alone” value in experiment [3] came out at 1.173.

Take `N#Cc1cccc(C(=O)NC2CCN(c3ccnc(Nc4ccc(F)cc4)n3)C2)c1` (centres unmarked) [GSK1379708A]: the “fold change in fluorescence relative to zaprinast alone” value in experiment [3] is 1.095.

In the case of `COc1ccc2ncnc(Nc3ccc(OCc4ccccc4)cc3)c2c1` [GI261520A], the “fold change in fluorescence relative to zaprinast alone” value in experiment [3] came to 0.7394.

Take `CC1=C(C(=O)Nc2cc(Cl)c3[nH]ncc3c2)C(c2ccc(C(F)(F)F)cc2)CC(=O)N1` (centres unmarked) [GSK466317A]: the “fold change in fluorescence relative to zaprinast alone” value in experiment [3] is listed as 1.01.

For the molecule `ON=C1CCc2cc(-c3nc(C4CCNCC4)[nH]c3-c3ccncc3)ccc21` [SB-614067-R], the “fold change in fluorescence relative to zaprinast alone” value in experiment [3] worked out at 1.048.

`O=C(Nc1n[nH]c2cc(-c3ccoc3)ccc12)C1CC1` [SB-738481]: the “fold change in fluorescence relative to zaprinast alone” value in experiment [3] was 1.2.

On to `Nc1ncc(-c2cccc(S(N)(=O)=O)c2)c2scc(-c3ccc(F)c(Cl)c3)c12` [GW856804X], for which, in experiment [3], the “fold change in fluorescence relative to zaprinast alone” value is recorded as 0.8933.

With `NC(=O)c1ccc(Oc2nccc(-c3c(-c4ccc(F)cc4)ncn3C3CCNCC3)n2)cc1` [SB-242718], the “fold change in fluorescence relative to zaprinast alone” value in experiment [3] is 1.27.

For `Cc1ccc(F)c(C(=O)Nc2cccc(-c3nn4ccccc4c3-c3ccnc(Nc4cccc(F)c4)n3)c2)c1F` [GSK361061A], the “fold change in fluorescence relative to zaprinast alone” value in experiment [3] is recorded as 0.9289.

For the molecule `Fc1cccc(COc2ccc(Nc3ncncc3C#Cc3ccccc3)cc2Cl)c1` [GW651576X], in experiment [3], the “fold change in fluorescence relative to zaprinast alone” value was 1.149.

Turning to `Fc1ccc(-c2ncn(CCCN3CCOCC3)c2-c2cccnc2)cc1` [SB-211743], the “fold change in fluorescence relative to zaprinast alone” value in experiment [3] is reported as 1.228.

As for `Fc1cccc(COc2ccc(Nc3ncnc4sc(-c5cccs5)cc34)cc2Cl)c1` [GW684626B], in experiment [3], the “fold change in fluorescence relative to zaprinast alone” value is 0.9792.

One may read the IC50 as the concentration needed to halve the response being measured.
